Test results taken from patent publication US6054435A, “6-O-substituted macrolides having antibacterial activity” (priority 1999, dated 2000).
Values after ≈ are worked out from the molar mass of the structure shown.

Columns and labels:
Test in all cases: in vitro antibacterial activity (MIC), agar dilution
Assay type in all cases: cell-based
[1] = test system: Streptococcus Pneumonia 5979; conditions: organism code ZZ; BHI agar, 35-37° C., 20 to 24 hours; unit assumed
Method: (§1) Representative compounds of the present invention were assayed in vitro for antibacterial activity as follows: Twelve petri dishes containing successive aqueous dilutions of the test compound mixed with 10 mL of sterilized Brain Heart Infusion (BHI) agar (Difco 0418-01-5) were prepared. Each plate was inoculated with 1:100 (or 1:10 for slow-growing strains, such as Micrococcus and Streptococcus) dilutions of up to 32 different microorganisms, using a Steers replicator block. […] In addition, a control plate, using BHI agar containing no test compound, was prepared and incubated at the beginning and end of each test.
(§2) An additional plate containing a compound having known susceptibility patterns for the organisms being tested and belonging to the same antibiotic class as the test compound was also prepared and incubated as a further control, as well as to provide test-to-test comparability.
(§3) After incubation, each plate was visually inspected. The minimum inhibitory concentration (MIC) was defined as the lowest concentration of drug yielding no growth, a slight haze, or sparsely isolated colonies on the inoculum spot as compared to the growth control.

[2] = test system: Streptococcus Pneumonia GYR 1171; conditions: organism code YY; BHI agar, 35-37° C., 20 to 24 hours; unit assumed
Method: as §1, §2, §3

[3] = test system: Staphylococcus aureus A5177; conditions: organism code BB; BHI agar, 35-37° C., 20 to 24 hours; unit assumed
Method: as §1, §2, §3

[4] = test system: Staphylococcus aureus NCTC10649M; conditions: organism code EE; BHI agar, 35-37° C., 20 to 24 hours; unit assumed
Method: as §1, §2, §3

[5] = test system: Staphylococcus aureus A-5278; conditions: organism code CC; BHI agar, 35-37° C., 20 to 24 hours; unit assumed
Method: as §1, §2, §3

[6] = test system: Nocardia Asteroides ATCC9970; conditions: organism code VV; BHI agar, 35-37° C., 20 to 24 hours; unit assumed
Method: as §1, §2, §3

[7] = test system: Micrococcus luteus ATCC 4698; conditions: organism code PP; BHI agar, 35-37° C., 20 to 24 hours; unit assumed
Method: as §1, §2, §3

[8] = test system: Micrococcus luteus ATCC 9341; conditions: organism code OO; BHI agar, 35-37° C., 20 to 24 hours; unit assumed
Method: as §1, §2, §3

[9] = test system: Escherichia coli SS; conditions: organism code RR; BHI agar, 35-37° C., 20 to 24 hours; unit assumed
Method: as §1, §2, §3

[10] = test system: Streptococcus pyogenes PIU 2548; conditions: organism code NN; BHI agar, 35-37° C., 20 to 24 hours; unit assumed
Method: as §1, §2, §3

[11] = test system: Streptococcus bovis A-5169; conditions: organism code JJ; BHI agar, 35-37° C., 20 to 24 hours; unit assumed
Method: as §1, §2, §3

[12] = test system: Staphylococcus aureus ATCC 6538P; conditions: organism code AA; BHI agar, 35-37° C., 20 to 24 hours; unit assumed
Method: as §1, §2, §3

[13] = test system: Staphylococcus epidermidis 3519; conditions: organism code HH; BHI agar, 35-37° C., 20 to 24 hours; unit assumed
Method: as §1, §2, §3

[14] = test system: Staphylococcus aureus CMX 553; conditions: organism code FF; BHI agar, 35-37° C., 20 to 24 hours; unit assumed
Method: as §1, §2, §3

[15] = test system: Candida albicans CCH 442; conditions: organism code TT; BHI agar, 35-37° C., 20 to 24 hours; unit assumed
Method: as §1, §2, §3

[16] = test system: Streptococcus Pneumonia 5649; conditions: organism code ZZA; BHI agar, 35-37° C., 20 to 24 hours; unit assumed
Method: as §1, §2, §3

[17] = test system: Haemophilis Influenzae DILL AMP R; conditions: organism code WW; BHI agar, 35-37° C., 20 to 24 hours; unit assumed
Method: as §1, §2, §3

[18] = test system: Staphylococcus aureus 1775; conditions: organism code GG; BHI agar, 35-37° C., 20 to 24 hours; unit assumed
Method: as §1, §2, §3

[19] = test system: Enterococcus faecium ATCC 8043; conditions: organism code II; BHI agar, 35-37° C., 20 to 24 hours; unit assumed
Method: as §1, §2, §3

[20] = test system: Mycobacterium smegmatis ATCC 114; conditions: organism code UU; BHI agar, 35-37° C., 20 to 24 hours; unit assumed
Method: as §1, §2, §3

[21] = test system: Escherichia coli JUHL; conditions: organism code QQ; BHI agar, 35-37° C., 20 to 24 hours; unit assumed
Method: as §1, §2, §3

[22] = test system: Escherichia coli DC-2; conditions: organism code SS; BHI agar, 35-37° C., 20 to 24 hours; unit assumed
Method: as §1, §2, §3

[23] = test system: Streptococcus Pneumonia ATCC6303; conditions: organism code XX; BHI agar, 35-37° C., 20 to 24 hours; unit assumed
Method: as §1, §2, §3

[24] = test system: Streptococcus pyogenes EES61; conditions: organism code LL; BHI agar, 35-37° C., 20 to 24 hours; unit assumed
Method: as §1, §2, §3

[25] = test system: Staphylococcus aureus CMX 642A; conditions: organism code DD; BHI agar, 35-37° C., 20 to 24 hours; unit assumed
Method: as §1, §2, §3

[26] = test system: Streptococcus agalactiae CMX 508; conditions: organism code KK; BHI agar, 35-37° C., 20 to 24 hours; unit assumed
Method: as §1, §2, §3

[27] = test system: Streptococcus pyogenes 930; conditions: organism code MM; BHI agar, 35-37° C., 20 to 24 hours; unit assumed
Method: as §1, §2, §3

SMILES	MIC [2]	MIC [3]	MIC [4]	MIC [5]	MIC [6]	MIC [7]	MIC [8]	MIC [9]	MIC [10]	MIC [11]	MIC [12]	MIC [13]	MIC [14]	MIC [15]	MIC [16]	MIC [17]	MIC [18]	MIC [19]	MIC [20]	MIC [21]	other results
CC[C@H]1OC(=O)[C@H](C)C(=O)[C@H](C)[C@@H](O[C@@H]2O[C@H](C)C[C@H](N(C)C)[C@H]2O)[C@](C)(OCC#Cc2ccc(-c3cccc(Cl)c3)s2)C[C@@H](C)C(=O)[C@H](C)[C@H]2NC(=O)O[C@@]21C [Example 16]	0.03 µg/mL (≈ 0.0362 µM)	0.2 µg/mL (≈ 0.241 µM)	0.2 µg/mL (≈ 0.241 µM)	25 µg/mL (≈ 30.1 µM)	0.2 µg/mL (≈ 0.241 µM)	0.2 µg/mL (≈ 0.241 µM)	0.02 µg/mL (≈ 0.0241 µM)	0.39 µg/mL (≈ 0.47 µM)	0.2 µg/mL (≈ 0.241 µM)	0.02 µg/mL (≈ 0.0241 µM)	0.1 µg/mL (≈ 0.121 µM)	0.2 µg/mL (≈ 0.241 µM)	0.2 µg/mL (≈ 0.241 µM)	> 100 µg/mL	0.25 µg/mL (≈ 0.301 µM)	4 µg/mL (≈ 4.82 µM)	12.5 µg/mL (≈ 15.1 µM)	0.1 µg/mL (≈ 0.121 µM)	0.2 µg/mL (≈ 0.241 µM)	> 100 µg/mL	MIC [1]: 2 µg/mL (≈ 2.41 µM); MIC [22]: > 100 µg/mL; MIC [23]: 0.03 µg/mL (≈ 0.0362 µM); MIC [24]: 0.1 µg/mL (≈ 0.121 µM); MIC [25]: 0.2 µg/mL (≈ 0.241 µM); MIC [26]: 0.02 µg/mL (≈ 0.0241 µM)
CC[C@H]1OC(=O)[C@H](C)[C@@H](O[C@H]2C[C@@](C)(OC)[C@@H](O)[C@H](C)O2)[C@H](C)[C@@H](O[C@@H]2O[C@H](C)C[C@H](N(C)C)[C@H]2O)[C@](C)(O)C[C@@H](C)C(=O)[C@H](C)[C@@H](O)[C@]1(C)O [Ery. A, Erythromycin A, reference compound]	0.06 µg/mL (≈ 0.0818 µM)	3.1 µg/mL (≈ 4.22 µM)	0.39 µg/mL (≈ 0.531 µM)	> 100 µg/mL	0.1 µg/mL (≈ 0.136 µM)	0.2 µg/mL (≈ 0.273 µM)	0.05 µg/mL (≈ 0.0681 µM)	0.78 µg/mL (≈ 1.06 µM)	6.2 µg/mL (≈ 8.45 µM)	0.02 µg/mL (≈ 0.0273 µM)	0.2 µg/mL (≈ 0.273 µM)	0.39 µg/mL (≈ 0.531 µM)	0.39 µg/mL (≈ 0.531 µM)	> 100 µg/mL	16 µg/mL (≈ 21.8 µM)	4 µg/mL (≈ 5.45 µM)	> 100 µg/mL	0.05 µg/mL (≈ 0.0681 µM)	3.1 µg/mL (≈ 4.22 µM)	> 100 µg/mL	MIC [27]: > 100 µg/mL; MIC [22]: > 100 µg/mL; MIC [23]: 0.06 µg/mL (≈ 0.0818 µM); MIC [24]: 0.05 µg/mL (≈ 0.0681 µM); MIC [25]: 0.39 µg/mL (≈ 0.531 µM); MIC [26]: 0.05 µg/mL (≈ 0.0681 µM)
CC[C@H]1OC(=O)[C@H](C)C(=O)[C@H](C)[C@@H](O[C@@H]2O[C@H](C)C[C@H](N(C)C)[C@H]2O)[C@](C)(OCC#Cc2ccc(-c3cc(Cl)cc(Cl)c3)s2)C[C@@H](C)C(=O)[C@H](C)[C@H]2NC(=O)O[C@@]21C [Example 17]	0.125 µg/mL (≈ 0.145 µM)	0.78 µg/mL (≈ 0.903 µM)	1.56 µg/mL (≈ 1.81 µM)	12.5 µg/mL (≈ 14.5 µM)	0.78 µg/mL (≈ 0.903 µM)	0.78 µg/mL (≈ 0.903 µM)	0.39 µg/mL (≈ 0.451 µM)	12.5 µg/mL (≈ 14.5 µM)	0.39 µg/mL (≈ 0.451 µM)	0.2 µg/mL (≈ 0.232 µM)	0.39 µg/mL (≈ 0.451 µM)	0.78 µg/mL (≈ 0.903 µM)	0.78 µg/mL (≈ 0.903 µM)	> 100 µg/mL	1 µg/mL (≈ 1.16 µM)	8 µg/mL (≈ 9.26 µM)	12.5 µg/mL (≈ 14.5 µM)	0.78 µg/mL (≈ 0.903 µM)	0.78 µg/mL (≈ 0.903 µM)	> 100 µg/mL	MIC [1]: 1 µg/mL (≈ 1.16 µM); MIC [27]: 3.1 µg/mL (≈ 3.59 µM); MIC [22]: > 100 µg/mL; MIC [24]: 0.39 µg/mL (≈ 0.451 µM); MIC [25]: 0.78 µg/mL (≈ 0.903 µM); MIC [26]: 0.2 µg/mL (≈ 0.232 µM)
